Measurements published in publication PMC9219824, “Antiplasmodial Cyclodecapeptides from Tyrothricin Share a Target with Chloroquine” (Antibiotics, 2022).
Read-outs that look alike come from different tables or passages of the source. Square brackets hold non-standard residues; d marks the D form. Peptide text beside a SMILES is read from it. Orn = NCCC[C@H](N)C(=O)O

Columns and labels:
human erythrocytes = assay: Hemolytic activity; format: cell-based; settings: 2% hematocrit, 1 h at 37 °C, ± SEM
Procedure: To determine the hemolytic activity of the peptides, the duplicate 96-well plates with samples added to 90 μL 2% hematocrit per well were incubated for one hour at 37 °C and centrifuged using a swing-out rotor at 200× g for 3 min. The supernatant was diluted 1:8 in analytical quality water in separate 96-well plates and after mixing, the absorbance of the suspension was determined at 405 nm.
The data obtained from spectrophotometric measurement of the plates following the lactate dehydrogenase (Malstat) assay were converted to percentage growth inhibition using the data analysis method described by Rautenbach et al.. The background was obtained from control wells in which the parasites were killed with 100 µM GS while total growth was from the wells that were not submitted to peptides. The background for the hemolysis evaluation was from wells in which the uninfected erythrocytes were lysed using 100 µM GS while growth control was from the wells with uninfected erythrocytes that received no peptides. The percentage COS-1 cell death (CellTiter Blue™ assay) was similarly calculated from absorbance values. All the dose–response assay data were evaluated using GraphPad Prism 4.03 (GraphPad Software, San Diego, CA, USA) followed by non-linear regression and sigmoidal curves were fitted (having variable slope and a constant difference of 100 between the top and bottom plateau). Following calculation of the 50% P. falciparum inhibitory concentration (IC50), 50% hemolytic concentration (HC50) and 50% lethal concentration (LC50) for COS-1 cells.

CQI P. falciparum D10 = settings: for nature of CQ-peptide interaction: at the lowest CQ ratio, D10
Procedure: In order to determine the nature of Trc-CQ interaction, IC50 values were derived from dose–response curves of fixed ratios of Trc and CQ for fractional inhibition concentration (FIC) determination according to an adaptation of the methods by Chawira and Warhust and Fivelman et al..
CQ at […] (2.0 µM) and 500.0 μM peptide were used to prepare doubling and quadrupling dilution ranges, respectively in supplemented RPMI-1640 culture medium used for culturing the P. falciparum, but lacking albumax II. These were then mixed in an chequerboard fashion to determine the 1:0; 0:1 1;1, 1:2; 1:5 and 1:10 ratios of CQ:peptide for combined IC50s. The CQ, peptide or drug:peptide combination (10 μL) was added to 90 μL of the cell suspensions, incubated for 48 h at 37 °C under an atmosphere of 3% CO2, 4% O2 and 93% N2 and analyzed for growth inhibition as previously described using the Malstat assay. The IC50 values and standard error of the mean for the various CQ-peptide combinations were determined from the dose–response curves plotted and analyzed using GraphPad Prism® 4.03 (GraphPad Software, San Diego, CA, USA). A minimum of three technical repeats and three biological repeats were carried out for each combination experiment.
Two fractional inhibition concentration (FIC) values were calculated for each of the five CQ-peptide combination ratios, one for CQ and the other for the peptide according to Equations (1) and (2) below from Bell:FICCQ = IC50([CQ] in combination)/IC50CQ ([CQ] alone)(1) FICPeptide = IC50 ([Peptide] in combination)/IC50Peptide ([Peptide] alone)(2)
The FIC values were used to compute the FIC index which is the sum of FICs of CQ and each peptide using Equation (3) below:FIC index = FICCQ + FICpeptide(3)
The magnitude of the FICI determined the nature of the CQ-peptide interaction as being either synergistic (FICI < 1.0), antagonistic (FICI > 1.0) or additive (FICI = 1.0) 64–66. […] The shape of the isobolograms also provided an indication of the nature of the interactive effect of CQ and the peptides with a concave curve for synergy, a linear line for an additive to non-interactive effect or convex curve for antagonism with deviation of the curves from the additivity line indicating the strength of the interactive effect.

P. falciparum D10 [1] = assay: Super-resolution structured illumination fluorescence microscopy (SR-SIM) of parasite morphology; format: cell-based, Plasmodium falciparum
Procedure: Prior to staining for fluorescence microscopy, the cultures were centrifuged at 300× g for 4 min, then the supernatant was discarded and cells were suspended to the same percentage hematocrit in a solution made of one part analytical quality water and three parts sterile PBS (pH 7.2–7.3) in order to reduce solute concentration.
The fluorescence microscopy involved staining suspended cultures (TpcC treated and untreated) prepared as described above (except for not being synchronized within the last 48 h of culturing) with combinations of trypan blue (red fluorescence) and either SYTO® 9 green-fluorescent nucleic acid stain or LipidTOX™ neutral lipid stain (green fluorescence). To view the neutral lipids, the cells were stained with LipidTOX™ (stock solution dilution at 1:200), incubated for 30 min at room temperature before staining with trypan blue at final concentration of 0.002% v/v. For nucleic acid staining, the cells were stained with SYTO® 9 (stock solution dilution at 1:1000) and trypan blue at final concentration of 0.002% v/v and incubated at room temperature for 15 min. Super-resolution structured illumination (SR-SIM) fluorescence microscopy was carried out as follows: thin ([…]) z-stacks of high-resolution image frames were accumulated in 5 rotations using an alpha Plan-Apochromat 100×/1.46 oil DIC M27 ELYRA objective, employing an ELYRA S.1 (Carl Zeiss Microimaging) microscope equipped with a 488 nm laser (100 mW), 561 nm laser (100 mW) and Andor EM-CCD camera (iXon DU 885). Images were […] using ZEN software (black edition, 2011, version 7.04.287) based on a structured illumination algorithm. Image projections and animations were carried out on reconstructed super-resolution images in ZEN.

P. falciparum D10 [2] = assay: Parasite stage distribution, Giemsa staining and light microscopy; format: cell-based, Plasmodium falciparum; settings: 200 nM, synchronized trophozoite stage cultures, 0 to 48 h
Procedure: For light microscopy, following addition of TpcC, aliquots were collected from the cultures at different time-points for preparation of Giemsa-stained blood smears. The assay was carried out in duplicate and lactate dehydrogenase activity of the residual cultures was determined after 48 h.

[3] = CQ:peptide ratio 1:2 at IC50, D10
[4] = CQ:peptide ratio 1:5 at IC50, D10
[5] = CQ:peptide ratio 1:10 at IC50, D10
[6] = CQ:peptide ratio 1:1 at IC50, D10

Structure (SMILES)	HC50, Erythrocytes (human erythrocytes)	nature of CQ-peptide interaction (CQI P. falciparum D10)	permeabilization or lysis of parasite and erythrocyte membranes (trypan blue leakage) (P. falciparum D10 [1]; lethal concentration of 200 nM)	chromatin morphology (SYTO9 nuclear staining) (P. falciparum D10 [1]; post 6 h treatment)	neutral lipid structures (LipidTOX stain) (P. falciparum D10 [1]; trophozoite stage cultures, after 5 h in culture)	CQ FIC (CQI P. falciparum D10; [3])	CQ:Peptide FIC Index (CQI P. falciparum D10; [3])	Peptide FIC (CQI P. falciparum D10; [3])	CQ FIC (CQI P. falciparum D10; [4])	CQ:Peptide FIC Index (CQI P. falciparum D10; [4])	Peptide FIC (CQI P. falciparum D10; [4])	CQ FIC (CQI P. falciparum D10; [5])	CQ:Peptide FIC Index (CQI P. falciparum D10; [5])	Peptide FIC (CQI P. falciparum D10; [5])	effect on parasite stage progression (P. falciparum D10 [2])	CQ FIC (CQI P. falciparum D10; [6])	CQ:Peptide FIC Index (CQI P. falciparum D10; [6])	Peptide FIC (CQI P. falciparum D10; [6])	CQ:Peptide FIC Index (CQI P. falciparum D10; CQ:peptide ratio 1:1 at IC50, D10, listed as Tyrocidine A)
CC(C)C[C@@H]1NC(=O)[C@H](CCCN)NC(=O)[C@H](C(C)C)NC(=O)[C@H](Cc2ccccc2)NC(=O)[C@H](CCC(N)=O)NC(=O)[C@H](CC(N)=O)NC(=O)[C@@H](Cc2ccccc2)NC(=O)[C@H](Cc2ccccc2)NC(=O)[C@@H]2CCCN2C(=O)[C@@H](Cc2ccccc2)NC1=O [PhcA, phenycidine A] (cyclo(FV[Orn]L[dF]PF[dF]NQ))	7.1 ± 1.6 (8) μM	synergistic action																	
CC(C)C[C@@H]1NC(=O)[C@H](CCCN)NC(=O)[C@H](C(C)C)NC(=O)[C@H](Cc2c[nH]c3ccccc23)NC(=O)[C@H](CCC(N)=O)NC(=O)[C@H](CC(N)=O)NC(=O)[C@@H](Cc2c[nH]c3ccccc23)NC(=O)[C@H](Cc2c[nH]c3ccccc23)NC(=O)[C@@H]2CCCN2C(=O)[C@@H](Cc2ccccc2)NC1=O [TpcC, tryptocidine C] (cyclo(L[dF]PW[dW]NQWV[Orn]))	9.1 ± 1.5 (4) μM	additive activity	none of the parasite membranes or erythrocyte membrane was permeabilized or lysed	abnormality in the packing or compactness of the chromatin	the lipid structures were distorted and diffused	0.36 ± 0.07	1.26 ± 0.36	0.90 ± 0.40	0.23 ± 0.08	1.47 ± 0.28	1.24 ± 0.26	0.08 ± 0.03	1.02 ± 0.17	0.93 ± 0.16	delay in the occurrence of the schizont stage				
CC(C)C[C@@H]1NC(=O)[C@H](CCCN)NC(=O)[C@H](C(C)C)NC(=O)[C@H](Cc2ccc(O)cc2)NC(=O)[C@H](CCC(N)=O)NC(=O)[C@H](CC(N)=O)NC(=O)[C@@H](Cc2ccccc2)NC(=O)[C@H](Cc2ccccc2)NC(=O)[C@@H]2CCCN2C(=O)[C@@H](Cc2ccccc2)NC1=O [TrcA, tyrocidine A] (cyclo(V[Orn]L[dF]PF[dF]NQY))						0.66 ± 0.02	1.60 ± 0.20	0.95 ± 0.18				0.13 ± 0.10	1.35 ± 0.37	1.21 ± 0.29		1.77 ± 0.29	> 3	1.99 ± 0.36	3.76 ± 0.65
